Measured values published in ChEMBL document CHEMBL4673401 (ACS Med Chem Lett, 2021).

Legend:
[1] = target: T1, Indoleamine 2,3-dioxygenase 1 (Homo sapiens, UniProt P14902); assay: Inhibition of human IDO1 expressed in Escherichia coli Rosetta using tryptophan as substrate incubated for 1 hr by methylene blue based assay
[2] = target: Tryptophan 2,3-dioxygenase (Homo sapiens, UniProt P48775); assay: Inhibition of human TDO expressed in Escherichia coli Rosetta using tryptophan as substrate incubated for 1 hr by methylene blue based assay
Tryptophan 2,3-dioxygenase, sequence (P48775 whole entry): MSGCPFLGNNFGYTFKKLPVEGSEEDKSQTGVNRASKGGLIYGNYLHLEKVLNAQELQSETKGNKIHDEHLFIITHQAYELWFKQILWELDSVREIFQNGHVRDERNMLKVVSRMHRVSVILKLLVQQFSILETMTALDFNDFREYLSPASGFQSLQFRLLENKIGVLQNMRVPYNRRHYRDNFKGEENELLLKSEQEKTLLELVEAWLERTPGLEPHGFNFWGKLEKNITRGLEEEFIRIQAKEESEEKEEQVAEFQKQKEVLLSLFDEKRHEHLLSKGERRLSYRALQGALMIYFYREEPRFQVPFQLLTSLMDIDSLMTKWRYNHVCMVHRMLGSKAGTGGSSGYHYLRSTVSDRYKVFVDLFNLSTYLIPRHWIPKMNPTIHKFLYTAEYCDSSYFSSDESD

[3] = target: Indoleamine 2,3-dioxygenase 1 (Mus musculus) (UniProt P28776); assay: In vivo inhibition of IDO1 in C57BL/6 mouse assessed as reduction in kynurenine level in plasma at 300 mg/kg, po administered as single dose measured after 2 hrs relative to control; format: functional, organism-based
Indoleamine 2,3-dioxygenase 1 (Mus musculus), sequence (P28776 whole entry, looked up): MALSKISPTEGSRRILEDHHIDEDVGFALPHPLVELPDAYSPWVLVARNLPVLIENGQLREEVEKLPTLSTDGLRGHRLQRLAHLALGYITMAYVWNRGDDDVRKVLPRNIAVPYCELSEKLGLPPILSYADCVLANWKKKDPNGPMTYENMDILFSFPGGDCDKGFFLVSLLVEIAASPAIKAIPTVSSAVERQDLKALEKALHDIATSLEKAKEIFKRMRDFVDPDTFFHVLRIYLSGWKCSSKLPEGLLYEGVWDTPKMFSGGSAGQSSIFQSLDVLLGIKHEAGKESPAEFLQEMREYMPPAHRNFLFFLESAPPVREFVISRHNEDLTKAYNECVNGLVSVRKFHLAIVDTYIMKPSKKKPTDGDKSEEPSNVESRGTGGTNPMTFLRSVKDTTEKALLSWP

[4] = Oral bioavailability in Beagle dog at 2 mg/kg measured up to 24 hrs; format: ADME, organism-based, Canis lupus familiaris; conditions: in vivo
[5] = tested on: MC-38; assay: Antitumor activity against mouse MC38 cells xenograted in humanized PD-1 mouse assessed as tumor growth inhibition at 600 mg/kg, po bid for 14 days in combination with PD-1 antibody at 3 mg/kg, ip qod for 8 days by digital caliper method relative to control; format: functional; conditions: MC-38, 336 h, time 14 day, read-out: TGI
[6] = Clearance in C57BL/6 mouse at 3 mg/kg, po measured up to 24 hrs; format: ADME, organism-based; conditions: in vivo
[7] = Half life in C57BL/6 mouse at 3 mg/kg, po measured up to 24 hrs; format: ADME, organism-based; conditions: in vivo
[8] = AUC in C57BL/6 mouse at 3 mg/kg, po measured up to 24 hrs; format: ADME, organism-based; set-up: route oral, dose 3 mg/kg, time <=24; conditions: in vivo
[9] = Half life in Beagle dog at 2 mg/kg, po measured up to 24 hrs; format: ADME, organism-based, Canis lupus familiaris; conditions: in vivo
[10] = Cmax in Beagle dog at 2 mg/kg, po measured up to 24 hrs; format: ADME, organism-based, Canis lupus familiaris; set-up: route oral, dose 2 mg/kg, time <=24; conditions: in vivo
[11] = target: Voltage-gated inwardly rectifying potassium channel KCNH2 (Homo sapiens, UniProt Q12809); assay: Inhibition of human ERG expressed in CHO-K1 cells at -90 mV holding potential by automated patch-clamp method; format: cell-based
Voltage-gated inwardly rectifying potassium channel KCNH2, sequence (Q12809 whole entry): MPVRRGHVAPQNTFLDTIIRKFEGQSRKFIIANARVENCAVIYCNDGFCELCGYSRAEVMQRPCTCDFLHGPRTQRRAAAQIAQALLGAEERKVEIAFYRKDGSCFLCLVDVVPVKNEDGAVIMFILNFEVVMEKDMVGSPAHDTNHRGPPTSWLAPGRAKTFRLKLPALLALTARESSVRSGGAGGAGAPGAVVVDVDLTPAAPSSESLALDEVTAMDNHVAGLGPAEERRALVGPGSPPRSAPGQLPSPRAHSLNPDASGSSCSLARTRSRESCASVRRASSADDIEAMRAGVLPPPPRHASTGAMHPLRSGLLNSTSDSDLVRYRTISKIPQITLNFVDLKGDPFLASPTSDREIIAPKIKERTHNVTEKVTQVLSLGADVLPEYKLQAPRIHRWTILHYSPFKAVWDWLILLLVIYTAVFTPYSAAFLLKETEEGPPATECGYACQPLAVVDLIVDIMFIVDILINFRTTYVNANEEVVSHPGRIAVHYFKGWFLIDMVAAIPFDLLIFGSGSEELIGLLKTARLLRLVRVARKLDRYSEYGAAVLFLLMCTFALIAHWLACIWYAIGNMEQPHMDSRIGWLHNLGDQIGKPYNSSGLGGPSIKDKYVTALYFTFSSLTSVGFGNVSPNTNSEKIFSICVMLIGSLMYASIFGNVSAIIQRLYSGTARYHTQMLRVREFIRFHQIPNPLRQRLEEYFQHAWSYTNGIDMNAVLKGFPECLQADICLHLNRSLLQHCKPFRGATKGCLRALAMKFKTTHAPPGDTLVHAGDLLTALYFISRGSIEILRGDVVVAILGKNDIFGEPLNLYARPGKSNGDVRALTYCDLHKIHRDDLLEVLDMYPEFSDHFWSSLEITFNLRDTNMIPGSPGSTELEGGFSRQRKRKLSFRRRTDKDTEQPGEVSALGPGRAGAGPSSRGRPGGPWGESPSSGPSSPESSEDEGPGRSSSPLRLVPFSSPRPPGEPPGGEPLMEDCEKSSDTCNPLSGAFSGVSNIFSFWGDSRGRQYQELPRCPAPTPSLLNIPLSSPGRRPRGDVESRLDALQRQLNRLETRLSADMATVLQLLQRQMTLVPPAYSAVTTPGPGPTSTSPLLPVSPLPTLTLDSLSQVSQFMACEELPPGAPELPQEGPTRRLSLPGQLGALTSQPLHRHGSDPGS

[12] = target: Cytochrome P450 2C19 (Homo sapiens, UniProt P33261); assay: Inhibition of CYP2C19 in human liver microsomes using S-mephenytoin as substrate incubated for 10 mins in presence of NADPH by UHPLC-MS/MS analysis; format: ADME; conditions: read-out: INH
Cytochrome P450 2C19, sequence (P33261 whole entry): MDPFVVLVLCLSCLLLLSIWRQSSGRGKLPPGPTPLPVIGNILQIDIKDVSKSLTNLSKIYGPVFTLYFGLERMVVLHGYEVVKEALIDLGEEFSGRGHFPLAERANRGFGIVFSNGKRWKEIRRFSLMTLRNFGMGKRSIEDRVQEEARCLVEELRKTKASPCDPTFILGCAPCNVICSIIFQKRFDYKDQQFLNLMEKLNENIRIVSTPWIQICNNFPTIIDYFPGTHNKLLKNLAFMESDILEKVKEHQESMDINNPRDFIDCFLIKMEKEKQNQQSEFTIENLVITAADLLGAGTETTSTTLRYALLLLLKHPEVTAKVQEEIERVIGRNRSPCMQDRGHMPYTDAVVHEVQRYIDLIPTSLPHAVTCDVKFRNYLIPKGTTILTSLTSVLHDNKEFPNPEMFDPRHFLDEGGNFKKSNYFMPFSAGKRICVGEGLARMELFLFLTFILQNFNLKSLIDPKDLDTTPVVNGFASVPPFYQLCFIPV

[13] = AUC in Beagle dog at 2 mg/kg, po measured up to 24 hrs; format: ADME, organism-based, Canis lupus familiaris; set-up: route oral, dose 2 mg/kg, time <=24; conditions: in vivo
[14] = Toxicity in humanized PD-1 mouse xenografted with mouse MC38 cells assessed as effect on body weight at 150 to 600 mg/kg, po bid for 14 days in combination with PD-1 antibody at 3 mg/kg, ip qod for 8 days; format: organism-based; conditions: in vivo, 336 h, dose 150-600 mg/kg, time 14 day
[15] = target: T1, Indoleamine 2,3-dioxygenase 1; assay: Inhibition of IDO1 in IFNgamma-stimulated human HeLa cells using L-tryptophan as substrate measured after 48 hrs
[16] = AUC in Sprague-Dawley rat at 3 mg/kg, po measured up to 24 hrs; format: ADME, organism-based; set-up: route oral, dose 3 mg/kg, time <=24; conditions: in vivo
[17] = Half life in Sprague-Dawley rat at 3 mg/kg, po measured up to 24 hrs; format: ADME, organism-based; conditions: in vivo
[18] = Protein binding in dog plasma by rapid equilibrium dialysis method; format: ADME, cell-free, Canis lupus familiaris; conditions: read-out: PPB (converted)
[19] = target: Cytochrome P450 2C9 (Homo sapiens, UniProt P11712); assay: Inhibition of CYP2C9 in human liver microsomes using tolbutamide as substrate incubated for 10 mins in presence of NADPH by UHPLC-MS/MS analysis; format: ADME
Cytochrome P450 2C9, sequence (P11712 whole entry): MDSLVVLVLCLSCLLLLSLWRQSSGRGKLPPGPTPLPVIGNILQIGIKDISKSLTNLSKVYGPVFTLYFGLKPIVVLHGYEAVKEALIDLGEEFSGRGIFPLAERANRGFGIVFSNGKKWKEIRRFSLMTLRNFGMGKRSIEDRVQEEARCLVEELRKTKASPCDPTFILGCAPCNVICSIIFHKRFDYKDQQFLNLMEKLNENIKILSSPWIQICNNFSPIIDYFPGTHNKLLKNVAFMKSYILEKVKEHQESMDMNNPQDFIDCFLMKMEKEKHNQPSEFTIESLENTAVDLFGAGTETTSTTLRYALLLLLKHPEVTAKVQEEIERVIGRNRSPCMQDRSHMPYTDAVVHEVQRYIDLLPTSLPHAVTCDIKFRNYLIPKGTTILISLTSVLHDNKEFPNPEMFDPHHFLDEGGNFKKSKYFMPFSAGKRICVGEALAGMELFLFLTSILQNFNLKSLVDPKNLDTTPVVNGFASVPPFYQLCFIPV

[20] = Clearance in Sprague-Dawley rat at 3 mg/kg, po measured up to 24 hrs; format: ADME, organism-based; conditions: in vivo
[21] = Oral bioavailability in Sprague-Dawley rat at 3 mg/kg measured up to 24 hrs; format: ADME, organism-based; conditions: in vivo
[22] = Half life in human liver microsomes; format: ADME, Microsome
[23] = Oral bioavailability in C57BL/6 mouse at 3 mg/kg measured up to 24 hrs; format: ADME, organism-based; conditions: in vivo
[24] = Protein binding in human plasma by rapid equilibrium dialysis method; format: ADME, cell-free; conditions: read-out: PPB (converted)
[25] = Cmax in C57BL/6 mouse at 3 mg/kg, po measured up to 24 hrs; format: ADME, organism-based; set-up: route oral, dose 3 mg/kg, time <=24; conditions: in vivo
[26] = Protein binding in rat plasma by rapid equilibrium dialysis method; format: ADME, cell-free; conditions: read-out: PPB (converted)
[27] = Clearance in Beagle dog at 2 mg/kg, po measured up to 24 hrs; format: ADME, organism-based, Canis lupus familiaris; conditions: in vivo
[28] = tested on: MC-38; assay: Antitumor activity against mouse MC38 cells xenograted in po dosed humanized PD-1 mouse assessed as tumor growth inhibition administered twice for 14 days in combination with PD-1 antibody at 3 mg/kg, ip qod for 8 days by digital caliper method; format: functional, organism-based; conditions: time 14.0 day
[29] = target: Cytochrome P450 3A4 (Homo sapiens, UniProt P08684); assay: Inhibition of CYP3A4 in human liver microsomes using midazolam as substrate incubated for 10 mins in presence of NADPH by UHPLC-MS/MS analysis; format: ADME
Cytochrome P450 3A4, sequence (P08684 whole entry): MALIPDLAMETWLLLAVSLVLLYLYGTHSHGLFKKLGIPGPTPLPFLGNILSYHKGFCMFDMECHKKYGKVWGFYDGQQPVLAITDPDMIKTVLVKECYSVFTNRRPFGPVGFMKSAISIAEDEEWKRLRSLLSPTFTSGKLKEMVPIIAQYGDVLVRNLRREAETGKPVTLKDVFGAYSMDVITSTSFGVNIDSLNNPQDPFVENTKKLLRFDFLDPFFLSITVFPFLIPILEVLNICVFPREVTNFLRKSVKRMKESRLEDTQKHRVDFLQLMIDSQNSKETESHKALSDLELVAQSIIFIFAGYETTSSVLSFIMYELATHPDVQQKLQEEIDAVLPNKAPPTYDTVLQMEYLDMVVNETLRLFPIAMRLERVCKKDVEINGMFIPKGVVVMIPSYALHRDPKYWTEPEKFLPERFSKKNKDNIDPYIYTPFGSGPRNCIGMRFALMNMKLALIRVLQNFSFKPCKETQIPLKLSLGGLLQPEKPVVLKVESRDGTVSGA

[30] = tested on: MC-38; assay: Antitumor activity against mouse MC38 cells xenograted in humanized PD-1 mouse assessed as tumor growth inhibition at 150 mg/kg, po bid for 14 days in combination with PD-1 antibody at 3 mg/kg, ip qod for 8 days by digital caliper method relative to control; format: functional; conditions: MC-38, 336 h, time 14 day, read-out: TGI
[31] = Half life in rat liver microsomes; format: ADME, Microsome
[32] = target: Cytochrome P450 2D6 (Homo sapiens, UniProt P10635); assay: Inhibition of CYP2D6 in human liver microsomes using dextromethorphan as substrate incubated for 10 mins in presence of NADPH by UHPLC-MS/MS analysis; format: ADME
Cytochrome P450 2D6, sequence (P10635 whole entry): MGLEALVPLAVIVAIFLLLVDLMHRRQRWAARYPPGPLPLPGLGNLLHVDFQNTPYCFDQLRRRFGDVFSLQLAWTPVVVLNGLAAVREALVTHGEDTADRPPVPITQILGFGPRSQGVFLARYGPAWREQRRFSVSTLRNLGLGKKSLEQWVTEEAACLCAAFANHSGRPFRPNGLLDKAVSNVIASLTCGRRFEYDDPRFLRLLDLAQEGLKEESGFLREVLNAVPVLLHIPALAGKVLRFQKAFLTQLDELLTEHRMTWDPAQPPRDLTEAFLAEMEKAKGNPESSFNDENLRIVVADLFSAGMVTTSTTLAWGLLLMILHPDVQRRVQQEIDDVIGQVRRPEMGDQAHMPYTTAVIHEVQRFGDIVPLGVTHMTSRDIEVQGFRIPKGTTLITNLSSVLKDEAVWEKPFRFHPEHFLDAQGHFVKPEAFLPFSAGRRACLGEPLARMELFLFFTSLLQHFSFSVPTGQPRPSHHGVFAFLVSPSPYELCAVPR

[33] = tested on: MC-38; assay: Antitumor activity against mouse MC38 cells xenograted in humanized PD-1 mouse assessed as tumor growth inhibition at 300 mg/kg, po bid for 14 days in combination with PD-1 antibody at 3 mg/kg, ip qod for 8 days by digital caliper method relative to control; format: functional; conditions: MC-38, 336 h, time 14 day, read-out: TGI
[34] = Cmax in Sprague-Dawley rat at 3 mg/kg, po measured up to 24 hrs; format: ADME, organism-based; set-up: route oral, dose 3 mg/kg, time <=24; conditions: in vivo
[35] = target: T2, Cytochrome P450 1A2 (Homo sapiens, UniProt P05177); assay: Inhibition of CYP1A2 in human liver microsomes using phenacetin as substrate incubated for 10 mins in presence of NADPH by UHPLC-MS/MS analysis; format: ADME
T2 sequence (P05177 whole entry): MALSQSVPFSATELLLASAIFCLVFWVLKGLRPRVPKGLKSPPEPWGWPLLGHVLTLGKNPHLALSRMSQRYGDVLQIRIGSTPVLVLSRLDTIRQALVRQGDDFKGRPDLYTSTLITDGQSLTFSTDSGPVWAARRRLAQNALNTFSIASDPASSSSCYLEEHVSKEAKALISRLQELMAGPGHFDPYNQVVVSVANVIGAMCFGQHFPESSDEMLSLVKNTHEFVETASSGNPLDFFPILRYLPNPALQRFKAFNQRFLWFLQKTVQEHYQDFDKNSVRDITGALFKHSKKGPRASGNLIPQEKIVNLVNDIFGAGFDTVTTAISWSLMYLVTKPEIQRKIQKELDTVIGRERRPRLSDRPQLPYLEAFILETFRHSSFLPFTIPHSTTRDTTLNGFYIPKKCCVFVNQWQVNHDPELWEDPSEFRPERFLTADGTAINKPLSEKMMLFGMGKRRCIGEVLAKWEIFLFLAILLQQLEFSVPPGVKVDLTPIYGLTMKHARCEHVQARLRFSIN

[36] = Toxicity in humanized PD-1 mouse xenografted with mouse MC38 cells assessed as effect on body weight at 100 mg/kg, po bid for 14 days in combination with PD-1 antibody at 3 mg/kg, ip qod for 8 days; format: organism-based; conditions: in vivo, 336 h, time 14 day
[37] = tested on: MC-38; assay: Antitumor activity against mouse MC38 cells xenografted in humanized PD-1 mouse assessed as tumor growth inhibition at 100 mg/kg, po bid for 14 days in combination with PD-1 antibody at 3 mg/kg, ip qod for 8 days by digital caliper method relative to control; format: functional; conditions: MC-38, 336 h, time 14 day, read-out: TGI

T1 sequence (P14902 whole entry): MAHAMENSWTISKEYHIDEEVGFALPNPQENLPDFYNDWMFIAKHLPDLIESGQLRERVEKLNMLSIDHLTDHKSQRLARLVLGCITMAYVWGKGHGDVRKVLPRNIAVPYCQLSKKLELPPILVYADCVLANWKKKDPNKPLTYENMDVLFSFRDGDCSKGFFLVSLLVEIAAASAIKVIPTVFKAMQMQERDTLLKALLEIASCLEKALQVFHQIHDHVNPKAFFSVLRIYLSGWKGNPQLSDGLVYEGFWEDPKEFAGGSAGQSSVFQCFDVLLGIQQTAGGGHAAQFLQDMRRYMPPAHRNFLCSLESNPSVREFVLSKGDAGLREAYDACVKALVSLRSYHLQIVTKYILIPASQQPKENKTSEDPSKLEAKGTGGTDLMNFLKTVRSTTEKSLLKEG

| Structure (SMILES) | IC50 [2] [µM] | bioavailability [4] [%] | clearance [6] [mL/min/kg] | half-life [7] [h] | AUC at 24 h [8] [ng·h/mL] | half-life [9] [h] | Cmax [10] [ng/mL] | INH [11] [µM] | IC50 [12] [µM] | AUC at 24 h [13] [ng·h/mL] | AUC at 24 h [16] [ng·h/mL] | half-life [17] [h] | fraction unbound [18] | INH [19] [µM] | clearance [20] [mL/min/kg] | bioavailability [21] [%] | half-life [22] [h] | bioavailability [23] [%] | fraction unbound [24] | Cmax [25] [ng/mL] | further results |
| --- | --- | --- | --- | --- | --- | --- | --- | --- | --- | --- | --- | --- | --- | --- | --- | --- | --- | --- | --- | --- | --- |
| NS(=O)(=O)N1CCC(C(=O)/C(=N/O)Nc2ccc(F)c(Br)c2)CC1 | 62.5 | 102 | 61.2 | 1.21 | 358 | 3.04 | 742 | > 30 | > 10 | 3630 | 1530 | 6.14 | 0.04 | > 10 | 16.7 | 58.8 | 5.81 | 44 | 0.036 | 127 | IC50 [1]: 0.063 µM; inhibition [3]: 87.8%; inhibition in vivo at 600 mg/kg [5]: 86.8%; Activity [14]: Non-Toxic; IC50 [15]: 0.045 µM; fraction unbound [26]: 0.076; clearance [27]: 9.3 mL/min/kg; TGI [28]: Dose-dependent effect; INH [29]: > 10 µM; inhibition in vivo at 150 mg/kg [30]: 60.3%; half-life [31]: 1.56 h; INH [32]: > 10 µM; inhibition in vivo at 300 mg/kg [33]: 71.7%; Cmax [34]: 179 ng/mL; INH [35]: > 10 µM |
| NS(=O)(=O)NCCNc1nonc1C(=NO)Nc1ccc(F)c(Br)c1 [EPACADOSTAT] | > 100 | 50 | 49.2 | 2.41 | 1020 | 5.03 | 245 | > 30 | > 10 | 676 | 807 | 2.73 | 0.025 | > 10 | 29 | 55 | 4.88 | 44 | 0.015 | 253 | Activity [36]: Non-Toxic; inhibition in vivo at 100 mg/kg [37]: 66.9%; fraction unbound [26]: 0.03; clearance [27]: 36.6 mL/min/kg; INH [29]: > 10 µM; half-life [31]: 1.22 h; INH [32]: > 10 µM; Cmax [34]: 133 ng/mL; INH [35]: > 10 µM |
